According to patent US11261175B2 (priority 2017, dated 2022):

Tests used:
Type in all cases: cell-based
[1] = test system: HCV replicon NK5.1-Gluc (genotype 1b); test: Anti-HCV activity using HCV replicon NK5.1-Gluc (genotype 1b) in Huh 7.5.1 cells, luciferase readout; conditions: Hepatitis C virus, 72 h; Huh 7.5.1 cells with NK5.1-Gluc replicon, 3 days, Gaussia luciferase; read-out: HCV wt. GT-1b
[2] = test system: JFH5a-Rluc-ad34 virus (HCV GT-2a); test: Anti-HCV activity using HCVcc (JFH5a-Rluc-ad34 virus) in Huh 7.5.1 cells, Renilla luciferase readout; conditions: Hepatitis C virus, GT2A, Huh-7.5.1, 72 h, read-out: HCV wt. GT-2a
Protocol: <Experimental Example 1> Measurement of Anti-HCV Activity of Compounds of Examples Using HCVcc
Step 1: Cell Line and Cell Culture
Huh 7.5.1 cells were grown in Dulbecco's Modified Eagle's medium (DMEM; Gibco) supplemented with antibiotics (100 U/mL penicillin, 10 μg/mL streptomycin) and 10% heat-inactivated fetal bovine serum (ΔFBS; PEAK) in a CO2 incubator at 37° C. with […].
Huh7.5.1 cells were transfected with in vitro transcription RNA of JFH5a-Rluc-ad34, a derivative of JFH1 with adaptive mutations in E2 and p7 regions, by electroporation. JFH5a-Rluc-ad34 virus contains Renilla luciferase (Rluc), which is convenient for virus proliferation assay. The cell culture medium containing HCV was collected 3-5 days after the electroporation and then filtered through a […] pore size filter.
Step 3: Antiviral Activity Test Using Infectious HCV Particles
Huh 7.5.1 cells were inoculated with JFH5a-Rluc-ad34 virus and incubated for 4 hours. Four hours after the virus inoculation, the Huh7.5.1 cells infected with HCV were cultured in the medium containing the compound of examples serially diluted. Three days later, the cells were harvested and the intracellular luciferase activity was measured using Renilla luciferase assay system (Promega). Finally, the luciferase activity was normalized with those obtained from the negative control cells (mock-treated cells).

[3] = test system: HCV replicon S52-Feo (genotype 3a); test: Anti-HCV activity using HCV replicon S52-Feo (genotype 3a) in Huh 7.5.1 cells, luciferase readout; conditions: Hepatitis C virus, 72 h; Huh 7.5.1 cells with S52-Feo replicon, 3 days, firefly luciferase; read-out: HCV wt. GT-3a
[4] = test system: HCV genotype 1b replicon with NS5A L31V mutation; test: Transiently transfected assay of genotype 1b resistance mutant RNA L31V; conditions: Hepatitis C virus, Huh-7.5.1, 72 h, read-out: HCV Mutation L31V
Description: (§1) <Experimental Example 3> Transiently Transfected Assay of Genotype 1b Resistance Mutant RNAs
(§2) Replicon genomes substituted with Y93H, L31V and L31V+Y93H (double mutant), the resistance mutants to Daclatasvir with mutations at the NS5A protein domain 1.
(§3) These HCV resistance mutant genomes were linearized with scal restriction enzyme, and then the mutated HCV RNA was synthesized through in vitro transcription. Huh 7.5.1 cells were individually electroporated with HCV RNA with resistant mutations and plated in a 12 well plate. After 4 hours, Huh7.5.1 cells were seeded in DMEM containing the compounds of examples serially diluted for 3 days. Three days later, the cells were harvested and the intracellular luciferase activity was measured. The luciferase activity was normalized with those obtained from the negative control cells (mock-treated cells).

[5] = test system: HCV genotype 1b replicon with NS5A Y93H mutation; test: Transiently transfected assay of genotype 1b resistance mutant RNA Y93H; conditions: Hepatitis C virus, Huh-7.5.1, 72 h, read-out: HCV Mutation Y93H
Description: as §1, §2, §3

[6] = test system: HCV genotype 1b replicon with NS5A L31V+Y93H (double mutant); test: Transiently transfected assay of genotype 1b resistance mutant RNA L31V+Y93H (double mutant); conditions: Hepatitis C virus, Huh-7.5.1, 72 h, read-out: HCV Mutation L31V + Y93H
Description: as §1, §2, §3

CCCCCC1(CCCCC)c2cc(NC(=O)[C@@H]3CC(=O)CN3C(=O)[C@H](NC(=O)OC)c3ccccc3)ccc2-c2ccc(NC(=O)[C@@H]3CC(=O)CN3C(=O)[C@H](NC(=O)OC)c3ccccc3)cc21 [Example 17, dimethyl ((1R,1′R)-((5S,5′S)-(((9,9-dipentyl-9H-fluorene-2,7-diyl)bis(azanediyl))bis(carbonyl))bis(3-oxopyrrolidine-5,1-diyl))bis(2-oxo-1-phenylethane-2,1-diyl))dicarbamate]
EC50 [1]: 0.001 to 0.01 nM | EC50 [2]: 1 to 100 nM | EC50 [3]: 0.01 to 0.1 nM | EC50 [4]: 0.001 to 0.01 nM | EC50 [5]: 0.1 to 1 nM | EC50 [6]: 1 to 100 nM

CCCCC1(CCCC)c2cc(NC(=O)[C@@H]3CC4(CN3C(=O)[C@H](NC(=O)OC)c3ccccc3)OCCO4)ccc2-c2ccc(NC(=O)[C@@H]3CC4(CN3C(=O)[C@H](NC(=O)OC)c3ccccc3)OCCO4)cc21 [Example 15, dimethyl ((1R,1′R)-((8S,8′S)-(((9,9-dibutyl-9H-fluorene-2,7-diyl)bis(azanediyl))bis(carbonyl))bis(1,4-dioxa-7-azaspiro[4.4]nonane-8,7-diyl))bis(2-oxo-1-phenylethane-2,1-diyl))dicarbamate]
EC50 [1]: 0.001 to 0.01 nM | EC50 [2]: 1 to 100 nM | EC50 [3]: 0.1 to 1 nM | EC50 [4]: 0.001 to 0.01 nM | EC50 [5]: 0.01 to 0.1 nM | EC50 [6]: 0.01 to 0.1 nM

CCCCC1(CCCC)c2cc(NC(=O)[C@@H]3CC4(CN3C(=O)[C@H](NC(=O)OC)c3ccccc3)OCCO4)ccc2-c2ccc(-c3cnc([C@@H]4CCCN4C(=O)[C@@H](NC(=O)OC)C(C)C)[nH]3)cc21 [Example 14, methyl ((S)-1-((S)-2-(5-(9,9-dibutyl-7-((S)-7-((R)-2-((methoxycarbonyl)amino)-2-phenylacetyl)-1,4-dioxa-7-azaspiro[4.4]nonane-8-carboxyamido)-9H-fluorene-2-yl)-1H-imidazole-2-yl)pyrrolidine-1-yl)-3-methyl-1-oxobutane-2-yl)carbamate]
EC50 [1]: 0.001 to 0.01 nM | EC50 [2]: 0.01 to 0.1 nM | EC50 [3]: 0.01 to 0.1 nM | EC50 [4]: 0.001 to 0.01 nM | EC50 [5]: 0.001 to 0.01 nM | EC50 [6]: 1 to 100 nM

CCCCC1(CCCC)c2cc(NC(=O)[C@@H]3CC(F)(F)CN3C(=O)[C@H](NC(=O)OC)c3ccccc3)ccc2-c2ccc(NC(=O)[C@@H]3C[C@@H]4CCC[C@@H]4N3C(=O)[C@H](NC(=O)OC)c3ccccc3)cc21 [Example 24]
EC50 [4]: 0.001 to 0.01 nM | EC50 [5]: 1 to 100 nM | EC50 [6]: 1 to 100 nM

CCCCC1(CCCC)c2cc(NC(=O)[C@@H]3C[C@H]4CCC[C@H]4N3C(=O)[C@H](NC(=O)OC)c3ccccc3)ccc2-c2ccc(-c3cnc([C@@H]4CCCN4C(=O)[C@@H](NC(=O)OC)C(C)C)[nH]3)cc21 [Example 28, methyl ((S)-1-((S)-2-(5-(9,9-dibutyl-7-((2S,3aR,6aR)-1-((R)-2-((methoxycarbonyl)amino)-2-phenylacetyl)octahydrocyclopenta[b]pyrrole-2-carboxyamido)-9H-fluorene-2-yl)-1H-imidazole-2-yl)pyrrolidine-1-yl)-3-methyl-1-oxobutane-2-yl)carbamate]
EC50 [1]: 0.001 to 0.01 nM | EC50 [2]: 0.01 to 0.1 nM | EC50 [3]: 0.01 to 0.1 nM | EC50 [4]: 0.01 to 0.1 nM | EC50 [5]: 0.1 to 1 nM | EC50 [6]: > 100 nM

CCCCC1(CCCC)c2cc(NC(=O)[C@@H]3C[C@@H](OC(=O)C(C)C)CN3C(=O)[C@H](NC(=O)OC)c3ccccc3)ccc2-c2ccc(NC(=O)[C@@H]3C[C@@H](OC(=O)C(C)C)CN3C(=O)[C@H](NC(=O)OC)c3ccccc3)cc21 [Example 32, (3R,3′R,5S,5′S,52R)-5,5′-(9,9-dibutyl-9H-fluorene-2,7-diyl)bis(azanediyl)bis(oxomethylene)bis(1-((R)-2-(methoxycarbonylamino)-2-phenylacetyl)pyrrolidine-5,3-diyl) bis(2-methylpropanoate)]
EC50 [1]: 0.001 to 0.01 nM | EC50 [2]: 0.1 to 1 nM | EC50 [3]: 0.01 to 0.1 nM | EC50 [4]: 0.01 to 0.1 nM | EC50 [5]: 0.01 to 0.1 nM | EC50 [6]: 0.01 to 0.1 nM

CCCCCC1(CCCCC)c2cc(NC(=O)[C@@H]3CC4(CN3C(=O)[C@H](NC(=O)OC)c3ccccc3)OCCO4)ccc2-c2ccc(NC(=O)[C@@H]3CC4(CN3C(=O)[C@H](NC(=O)OC)c3ccccc3)OCCO4)cc21 [Example 13, dimethyl ((1R,1′R)-((8S,8′S)-(((9,9-dipentyl-9H-fluorene-2,7-diyl)bis(azanediyl))bis(carbonyl))bis(1,4-dioxa-7-azaspiro[4.4]nonane-8,7-diyl))bis(2-oxo-1-phenylethane-2,1-diyl))dicarbamate]
EC50 [1]: 0.001 to 0.01 nM | EC50 [2]: 1 to 100 nM | EC50 [3]: 0.1 to 1 nM | EC50 [4]: 0.001 to 0.01 nM | EC50 [5]: 0.001 to 0.01 nM | EC50 [6]: 0.01 to 0.1 nM

CCCCC1(CCCC)c2cc(NC(=O)[C@@H]3CCCN3C(=O)[C@H](NC(=O)OC)c3ccccc3)ccc2-c2ccc(-c3cnc([C@@H]4CCCN4C(=O)[C@@H](NC(=O)OC)C(C)C)[nH]3)cc21 [Example 9, methyl ((S)-1-((S)-2-(5-(9,9-dibutyl-7-((S)-1-((R)-2-((methoxycarbonyl)amino)-2-phenylacetyl)pyrrolidine-2-carboxyamido)-9H-fluorene-2-yl)-1H-imidazole-2-yl)pyrrolidine-1-yl)-3-methyl-1-oxobutane-2-yl)carbamate]
EC50 [1]: 0.001 to 0.01 nM | EC50 [2]: 0.01 to 0.1 nM | EC50 [3]: 0.01 to 0.1 nM | EC50 [4]: 0.01 to 0.1 nM | EC50 [5]: 0.01 to 0.1 nM | EC50 [6]: 0.1 to 1 nM

CCCCC1(CCCC)c2cc(NC(=O)[C@@H]3C[C@H](COC)CN3C(=O)[C@H](NC(=O)OC)c3ccccc3)ccc2-c2ccc(NC(=O)[C@@H]3C[C@H](COC)CN3C(=O)[C@H](NC(=O)OC)c3ccccc3)cc21 [Example 36, dimethyl (1R,1′R)-2,2′-((3S,3′S,5S,5′S)-5,5′-(9,9-dibutyl-9H-fluorene-2,7-diyl)bis(azanediyl)bis(oxomethylene)bis(3-(methoxymethyl)pyrrolidine-5,1-diyl))bis(2-oxo-1-phenylethane-2,1-diyl)dicarbamate]
EC50 [1]: 0.001 to 0.01 nM | EC50 [2]: 0.1 to 1 nM | EC50 [3]: 0.01 to 0.1 nM | EC50 [4]: 0.001 to 0.01 nM | EC50 [5]: 0.001 to 0.01 nM | EC50 [6]: 0.1 to 1 nM

CCCCC1(CCCC)c2cc(NC(=O)[C@@H]3CC(=O)CN3C(=O)[C@H](NC(=O)OC)c3ccccc3)ccc2-c2ccc(NC(=O)[C@@H]3CC4(CN3C(=O)[C@H](NC(=O)OC)c3ccccc3)OCCO4)cc21 [Example 7, methyl ((R)-2-((S)-8-((9,9-dibutyl-7-((S)-1-((R)-2-((methoxycarbonyl)amino)-2-phenylacetyl)-4-oxopyrrolidine-2-carboxyamido)-9H-fluorene-2-yl)carbamoyl)-1,4-dioxa-7-azaspiro[4.4]nonane-7-yl)-2-oxo-1-phenylethyl)carbamate]
EC50 [1]: 0.01 to 0.1 nM | EC50 [2]: 1 to 100 nM | EC50 [3]: 0.01 to 0.1 nM | EC50 [4]: 0.001 to 0.01 nM | EC50 [5]: 0.01 to 0.1 nM | EC50 [6]: 0.1 to 1 nM

CCCCC1(CCCC)c2cc(NC(=O)[C@@H]3CC(F)(F)CN3C(=O)[C@H](NC(=O)OC)c3ccccc3)ccc2-c2ccc(NC(=O)[C@@H]3CC4(CC4)CN3C(=O)[C@H](NC(=O)OC)c3ccccc3)cc21 [Example 23]
EC50 [4]: 0.001 to 0.01 nM | EC50 [5]: 1 to 100 nM | EC50 [6]: > 100 nM

CCCCC1(CCCC)c2cc(NC(=O)[C@@H]3CC(F)(F)CN3C(=O)[C@H](NC(=O)OC)c3ccccc3)ccc2-c2ccc(NC(=O)[C@@H]3CC(F)(F)CN3C(=O)[C@H](NC(=O)OC)c3ccccc3)cc21 [Example 20, dimethyl ((1R,1′R)-((5S,5′S)-(((9,9-dibutyl-9H-fluorene-2,7-diyl)bis(azanediyl))bis(carbonyl))bis(3,3-difluoropyrrolidine-5,1-diyl))bis(2-oxo-1-phenylethane-2,1-diyl))dicarbamate]
EC50 [1]: 0.001 to 0.01 nM | EC50 [2]: 1 to 100 nM | EC50 [3]: 0.01 to 0.1 nM | EC50 [4]: 0.01 to 0.1 nM | EC50 [5]: 1 to 100 nM
